Experimental data published in ChEMBL document CHEMBL1139128, “Structure-activity relationship analysis of a novel necroptosis inhibitor, Necrostatin-5” (Bioorg Med Chem Lett, 2007).
Active and inactive are the calls of the source. The rule behind the calls is not given here.

Tested on: Jurkat
Assay: Inhibition of TNF-alpha-induced necroptosis in FADD-deficient Jurkat T cells
Type: functional, cell-based
Set-up: concentration or dose not given beside the values
Conditions: for EC50: Jurkat

Structure (SMILES)	Activity (Homo sapiens)	Activity [%]	EC50 (Homo sapiens) [nM]
COc1ccc(-n2c(SCC(=O)Nc3ccccc3C(F)(F)F)nc3sc4c(c3c2=O)CCCC4)cc1	inactive	–	–
COc1ccc(-n2c(SCCl)nc3sc4c(c3c2=O)CCCC4)cc1	–	85	2220
CCc1sc2nc(SC)n(-c3ccc(F)cc3)c(=O)c2c1C	inactive	–	–
CCCCCCCCCCCCCCc1sc2nc(SCC#N)n(-c3ccc(OC)cc3)c(=O)c2c1C	inactive	–	–
N#CCSc1nc2sc3ccccc3c2c(=O)n1-c1ccc2c(c1)OCCO2	–	100	150
Cc1ccc(-n2c(SCC#N)nc3sc4c(c3c2=O)CCCC4)cc1	–	48.6	1800
COc1ccc(-n2c(SCC#N)nc3sc4c(c3c2=O)CCC4)cc1	–	100	450
COc1ccc(-n2c(SCCC#N)nc3sc4c(c3c2=O)CCCC4)cc1	–	70	5280
COc1ccc(-n2c(SCC#N)nc3c(c2=O)C2CCCCCC2S3)cc1 (centres undefined)	–	83	960
COc1ccccc1-n1c(SCC#N)nc2sc3c(c2c1=O)CCCC3	–	51.2	17800
COc1cccc(-n2c(SCC#N)nc3sc4c(c3c2=O)CCCC4)c1	–	87.7	1460
CCSc1nc2sc3c(c2c(=O)n1-c1ccc(OC)cc1)CCC3	inactive	–	–
COc1ccc(-n2c(SCc3ccccc3)nc3sc4c(c3c2=O)CCC4)cc1	inactive	–	–
COc1ccc(-n2c(SCC(=O)O)nc3sc(C)c(C)c3c2=O)cc1	inactive	–	–
N#CCSc1nc2sc3c(c2c(=O)n1-c1ccc(F)cc1)CCCC3	–	85.1	240
N#CCSc1nc2sc3c(c2c(=O)n1-c1ccccc1)CCCC3	inactive	–	–
COc1ccc(-n2c(SCCC#N)nc3sc(C)c(C)c3c2=O)cc1	inactive	–	–
COc1ccc(-n2c(SCCO)nc3sc4c(c3c2=O)CCC4)cc1	–	100	7140
CN(C)c1ccc(-n2c(SCC#N)nc3sc4ccccc4c3c2=O)cc1	inactive	–	–
CSc1nc2sc(C)c(C)c2c(=O)n1-c1ccc(C)c(C)c1	inactive	–	–
COc1ccc(-n2c(SCC#N)nc3sc(C)cc3c2=O)cc1	inactive	–	–
COc1ccc(-n2c(SC[N+](=O)[O-])nc3sc4c(c3c2=O)CCCC4)cc1	inactive	–	–
N#CCSc1nc2sc3c(c2c(=O)n1-c1ccc2c(c1)OCCO2)CCCC3	–	100	220
N#CCSc1nc2sc3c(c2c(=O)n1-c1ccc(OCc2ccccc2)cc1)CCCC3	inactive	–	–
CCCc1sc2nc(SC)n(-c3ccc(OC)cc3)c(=O)c2c1C	inactive	–	–

Structure (SMILES)	Activity (Homo sapiens)	Activity [%]	EC50 (Homo sapiens) [nM]
C#CCSc1nc2sc(C)c(C)c2c(=O)n1-c1ccc2c(c1)OCO2	inactive	–	–
Cc1sc2nc(SCC#N)n(-c3ccc4c(c3)OCO4)c(=O)c2c1C	–	100	1650
N#CCSc1nc2sc3c(c2c(=O)n1-c1ccc(F)cc1)CCC3	–	88.7	890
CSc1nc2sc(C)c(C)c2c(=O)n1-c1ccc(N(C)C)cc1	inactive	–	–
CCN1CCc2sc3nc(SC)n(-c4ccccc4)c(=O)c3c2C1	inactive	–	–
CCc1c(C)sc2nc(SCC#N)n(-c3ccc(OC)cc3)c(=O)c12	–	100	1080
N#CCSc1nc2sc3c(c2c(=O)n1-c1ccc2c(c1)OCCO2)CCC3	–	100	250
N#CCSc1nc2sc3c(c2c(=O)n1-c1cccc(Cl)c1)CCCC3	–	66.9	5100
COc1ccc(-n2c(SC)nc3sc4c(c3c2=O)CCCC4)cc1	–	71	240
CSc1nc2sc3c(c2c(=O)n1-c1ccc(F)cc1)CCCC3	–	61.2	1570
Cc1ccc(-n2c(SCC#N)nc3sc(C)c(C)c3c2=O)cc1C	–	90.7	2790
N#CCSc1nc2sc3c(c2c(=O)n1-c1ccc(OC(F)(F)F)cc1)CCC3	–	70	3700
N#CCSc1nc2sc3c(c2c(=O)n1-c1ccc(OC(F)(F)F)cc1)CCCCC3	inactive	–	–
N#CCSc1nc2sc3c(c2c(=O)n1-c1ccc(F)cc1)CCCCC3	inactive	–	–
COc1ccc(-n2c(SCC#N)nc3scc(C)c3c2=O)cc1	inactive	–	–
O=c1c2c3c(sc2nc(SCc2ccc([N+](=O)[O-])cc2)n1-c1ccccc1)CCCC3	inactive	–	–
CSc1nc2sc3c(c2c(=O)n1-c1ccc(OC(F)(F)F)cc1)CCC3	inactive	–	–
COc1ccc(-n2c(SCC(=O)O)nc3sc4c(c3c2=O)CCCC4)cc1	inactive	–	–
COc1ccc(-n2c(SC)nc3sc4c(c3c2=O)CC(C)CC4)cc1OC (centres undefined)	inactive	–	–
Cc1cc(Cl)ccc1-n1c(SCC#N)nc2sc3c(c2c1=O)CCCC3	inactive	–	–
Cc1ccccc1-n1c(SCC#N)nc2sc3c(c2c1=O)CCCC3	inactive	–	–
COc1ccc(-n2c(SCC#N)nc3sc4c(c3c2=O)CCC4)cc1OC	inactive	–	–
N#CCSc1nc2sc3ccccc3c2c(=O)n1-c1ccc2c(c1)OCO2	–	100	270
Cc1sc2nc(SCC#N)n(-c3ccc(OCc4ccccc4)cc3)c(=O)c2c1C	inactive	–	–
COc1ccc(-n2c(SCc3ccc([N+](=O)[O-])cc3)nc3sc4c(c3c2=O)CCCC4)cc1	inactive	–	–

Structure (SMILES)	Activity (Homo sapiens)	Activity [%]	EC50 (Homo sapiens) [nM]
CCc1sc2nc(SCCO)n(-c3ccc(OC)cc3)c(=O)c2c1C	inactive	–	–
CCOc1ccc(-n2c(SCC#N)nc3sc4c(c3c2=O)CCCC4)cc1	–	83.8	550
N#CCSc1nc2sc3c(c2c(=O)n1-c1ccc2c(c1)OCO2)CCCC3	–	100	890
CCCSc1nc2sc3c(c2c(=O)n1-c1ccc(OC)cc1)CCC3	inactive	–	–
CCCCCCSc1nc2sc3c(c2c(=O)n1-c1ccc(OC)cc1)CCCC3	inactive	–	–
CSc1ccc(-n2c(SCC#N)nc3sc4c(c3c2=O)CCCC4)cc1	–	70	2330
COc1ccc(-n2c(SC)nc3sccc3c2=O)cc1	inactive	–	–
Cc1ccc(-n2c(SCC#N)nc3sc4c(c3c2=O)CCC4)cc1C	inactive	–	–
COc1ccc(-n2c(SCC(N)=O)nc3sc4c(c3c2=O)CCCC4)cc1	inactive	–	–
N#CCSc1nc2sccc2c(=O)n1-c1ccccc1	inactive	–	–
COc1ccc(-n2c(SCC#N)nc3sc(C)c(C)c3c2=O)cc1	–	100	450
COc1ccc(-n2c(SCC(C)=O)nc3sc4c(c3c2=O)CCC4)cc1	inactive	–	–
COc1ccc(-n2c(SCCO)nc3sc(C)c(C)c3c2=O)cc1	–	78	7260
COc1ccc(-n2c(SC)nc3sc4ccccc4c3c2=O)cc1	–	77	240
COc1ccc(-n2c(SC)nc3sc4c(c3c2=O)CCCCC4)cc1	inactive	–	–
CCCc1sc2nc(SCC)n(-c3ccc(OC)cc3)c(=O)c2c1C	inactive	–	–
N#CCSc1nc2sc3c(c2c(=O)n1-c1ccc(Cl)c(Cl)c1)CCCC3	–	39	5700
CCOc1ccc(-n2c(SCC#N)nc3sc4c(c3c2=O)CCC4)cc1	inactive	–	–
CSc1nc2sc(C)c(C)c2c(=O)n1-c1ccc(F)cc1	–	69.2	2600
COC(=O)CSc1nc2sc3c(c2c(=O)n1-c1ccc(OC)cc1)CCCC3	inactive	–	–
CCOc1ccc(-n2c(SCC#N)nc3sc4ccccc4c3c2=O)cc1	inactive	–	–
COc1ccc(-n2c(SC)nc3sc(C)c(C)c3c2=O)cc1	inactive	–	–
COc1ccc(-n2c(SC(=O)c3ccccc3)nc3sc4c(c3c2=O)CCCC4)cc1	inactive	–	–
COc1ccc(-n2c(SCc3ccc([N+](=O)[O-])cc3)nc3sc4c(c3c2=O)CCC4)cc1	inactive	–	–
CCCc1sc2nc(SCCO)n(-c3ccc(OC)cc3)c(=O)c2c1C	inactive	–	–

Structure (SMILES)	Activity (Homo sapiens)	Activity [%]	EC50 (Homo sapiens) [nM]
CSc1nc2sc3c(c2c(=O)n1-c1ccc(C)c(C)c1)CCC3	inactive	–	–
C#CCSc1nc2sc3c(c2c(=O)n1-c1ccc(OC)cc1)CCC3	–	63.4	2490
CCSc1nc2sc(CC)c(C)c2c(=O)n1-c1ccc(OC)cc1	inactive	–	–
CCCCSc1nc2sc3c(c2c(=O)n1-c1ccc(OC)cc1)CCCC3	inactive	–	–
CCN1CCc2sc3nc(SC)n(-c4ccc(OC)cc4)c(=O)c3c2C1	inactive	–	–
CSc1nc2sc(C)c(C)c2c(=O)n1-c1ccc(OC(F)(F)F)cc1	inactive	–	–
COc1ccc(-n2c(SC)nc3scc(C)c3c2=O)cc1	inactive	–	–
N#CCSc1nc2sc3c(c2c(=O)n1-c1ccc2c(c1)OCO2)CCC3	–	100	1180
O=c1c2c3c(sc2nc(SCc2ccccc2)n1-c1ccccc1)CCCC3	inactive	–	–
CCSc1nc2sc3c(c2c(=O)n1-c1ccc(OC)cc1)CCCC3	inactive	–	–
CCc1sc2nc(SCC#N)n(-c3ccc(F)cc3)c(=O)c2c1C	inactive	–	–
C#CCSc1nc2sc(CC)c(C)c2c(=O)n1-c1ccc2c(c1)OCO2	inactive	–	–
CSc1nc2sc3c(c2c(=O)n1-c1ccc(C)c(C)c1)CCCC3	–	38	16700
CCN1CCc2sc3nc(SCC#N)n(-c4ccc(OC)cc4)c(=O)c3c2C1	inactive	–	–
COc1ccc(CSc2nc3sc4c(c3c(=O)n2-c2ccc(OC)cc2)CCCC4)cc1	inactive	–	–
CCCCCSc1nc2sc3c(c2c(=O)n1-c1ccc(OC)cc1)CCC3	inactive	–	–
CSc1nc2sc3c(c2c(=O)n1-c1ccc2c(c1)OCO2)CCCC3	inactive	–	–
N#CCSc1nc2sc3c(c2c(=O)n1-c1ccccc1)CCCCC3	inactive	–	–
CSc1nc2sccc2c(=O)n1-c1ccccc1	inactive	–	–
CSc1cccc(-n2c(SC)nc3sc4c(c3c2=O)CCCC4)c1	inactive	–	–
C#CCSc1nc2sc(CCC)c(C)c2c(=O)n1-c1ccc(OC)cc1	inactive	–	–
N#CCSc1nc2sc3ccccc3c2c(=O)n1-c1ccc(F)cc1	–	–	3060
